# Source: PMC10801775 (The Journal of Pharmacology and Experimental Therapeutics, 2024)
# Tests used:
# [1] = design: species or system Sprague-Dawley rats; details: rat, in vivo
# [2] = rat, in vivo
smiles,measurement,setting,value
"CCOP(=O)(OCC)Oc1ccc([N+](=O)[O-])cc1 [POX, O,O-diethyl-O-p-nitrophenylphosphate]",brain AUC as % of naïve,[1],> 80%
same,"heart AUC restored, % of naïve AUC level",[1],25%
same,liver AUC increase versus naïve,[1],4 fold
same,"lung AUC restored, % of naïve AUC level",[1],50%
same,mean brain region radioactivity higher than naïve rats,[1],up to 2 fold
same,RBC fraction relative to naïve and 60-minute studies,[2],about twice
same,"RBC fraction, % of total radioactivity",[2],20%
same,metabolite level in blood relative to naïve rats (or rats 60 minutes after POX),[2],5 fold
same,reduction of total percent radioactivity of plasma proteins,[2],~20%
